# Test results from US20240043435A1, “TYK-2 INHIBITOR” (BEIGENE, LTD., priority 2020, published 2024).
# Where two headings read alike, the source gives them in different places.
# Experiments:
# [1] = biological target: T1, TYK2-JH2 (aa 575-869, in-house) protein (Homo sapiens, UniProt P29597); assay: TYK2-JH2 biochemical assay (HTRF probe displacement); type: binding; settings: Biochemical assay; read-out: TYK2-JH2 IC50
# T1 construct: TYK2-JH2 (aa 575-869, in-house) protein; made in house
# How it was run: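 Recombinant TYK2-JH2 (0.2 nM) was pre-incubated 0.5 h at room temperature with compounds (10 doses, 5-fold dilution; 500× DMSO stocks from 500 uM) in 20 mM HEPES pH 7.5, 10 mM MgCl2, 0.005% BSA, 2 mM DTT, 0.015% Brij-35. Probe displacement was read by HTRF (ex337, em620/665 nm); IC50 from four-parameter logistic fit.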
# [2] = tested on: pSTAT5/GM-CSF; assay: pSTAT5/GM-CSF cellular assay (JAK2 selectivity); type: cell-based
# [3] = Mouse PK study, oral administration; type: in vivo, male CD-1 mouse
# Method: Biological Assay: Mouse PK Study
# The pharmacokinetics of compounds were evaluated in male CD-1 mouse via Oral Administration (dose of 10 mg/kg). For oral administration study, test compounds were added in 0.5% MC in water and administrated to mice at 10 mg/kg by gavage. Blood was collected into EDTA-K2 anticoagulant tube at 15, and 30 min and 1, 2, 4, 8 and 24 h after administration. Approximately 30 μL blood was collected at each time point. And then the blood was centrifuged at 2000 g for 5 min at 4° C. using a centrifuge to obtain the plasma. The plasma sample was transferred into a tube and stored in a freezer at approximately −70° C. until the determination of concentration by LC-MS/MS. Pharmacokinetic parameters were estimated by using WinNonlin software (version 8.1, Pharsight Corporation, CA, USA) with non-compartmental method. The following pharmacokinetic parameters were calculated, whenever possible from the plasma concentration-time data: Tmax, Cmax, AUClast, AUCinf, T1/2 for PO administration. All animals were fasted before experiment.
# [4] = tested on: JAK2, TYK2/p-STAT4 (Tyr693) activated by IL-12 in NK-92 cell line; assay: IL-12-JAK2, TYK2/p-STAT4 (Tyr693) inhibition IC50 cellular assay; type: cell-based; settings: for Selectivity fold (TYK2/JAK2): Cellular assay, pSTAT5/GM-CSF IC50 vs pSTAT4/IL-12 IC50; for IC50: NK92, Cellular assay, read-out: pSTAT4/IL-12 IC50
# How it was run: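 NK-92 cells were starved overnight without IL-2 and preincubated 1 h at 37° C with compound (8 doses, 10000–0.61 nM, 4-fold, 0.2% DMSO). They were then stimulated with IL-12 (40 ng/ml final) for 30 min. Lysate p-STAT4 (Tyr693) was read by AlphaLISA SureFire; IC50 from four-parameter logistic fit.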
# [5] = biological target: T2, JAK1-JH2 protein (aa 561-860, in-house) (Homo sapiens, UniProt P23458); assay: JAK1-JH2 biochemical assay (HTRF probe displacement); type: binding; settings: in-house probe of the JAK1-JH2 assay
# T2 construct: JAK1-JH2 protein (aa 561-860, in-house); made in house
# T2 sequence (P23458 561-860): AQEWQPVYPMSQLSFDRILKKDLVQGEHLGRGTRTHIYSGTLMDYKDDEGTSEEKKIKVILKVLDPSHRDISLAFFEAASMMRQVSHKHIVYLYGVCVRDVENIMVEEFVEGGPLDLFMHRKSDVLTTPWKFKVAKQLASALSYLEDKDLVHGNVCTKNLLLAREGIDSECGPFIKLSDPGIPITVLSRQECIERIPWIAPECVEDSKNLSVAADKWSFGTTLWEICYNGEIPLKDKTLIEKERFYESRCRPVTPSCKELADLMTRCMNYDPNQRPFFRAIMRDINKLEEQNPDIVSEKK
# [6] = Po dosing (10 mg/kg), male CD-1 mouse
# [7] = male, CD-1, plasma, Po 10 mg/kg mouse
# [8] = plasma, Po dosing (10 mg/kg), male CD-1 mouse, read-out: Cmax
# T1 sequence (P29597 575-869): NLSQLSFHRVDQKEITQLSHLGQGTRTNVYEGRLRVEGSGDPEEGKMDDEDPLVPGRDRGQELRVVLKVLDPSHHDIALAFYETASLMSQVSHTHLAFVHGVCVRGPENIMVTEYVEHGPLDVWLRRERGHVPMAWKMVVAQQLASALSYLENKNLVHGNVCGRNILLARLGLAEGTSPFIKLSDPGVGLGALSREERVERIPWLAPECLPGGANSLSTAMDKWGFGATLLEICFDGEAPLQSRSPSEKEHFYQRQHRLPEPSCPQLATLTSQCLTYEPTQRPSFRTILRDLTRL
IC50 [1] [nM],IC50 [2] [nM],"AUClast [3, 6] [ng·h/mL]","T1/2 [3, 6] [h]","AUC [3, 7] [ng·h/mL]","Cmax [3, 8] [ng/mL]",IC50 [4] [nM],"Cmax [3, 6] [ng/mL]","Cmax ([3]; male, CD-1, plasma, Po 10 mg/kg mouse, read-out: Cmax) [ng/mL]",AUC and Cmax fold higher than those of Example F22 and H11 ([3]; Po 10 mg/kg mouse),Kd [5] [nM],Compound,Selectivity fold (TYK2/JAK2) [4] [fold],Selectivity fold (TYK2/JAK2) ([2]; pSTAT5/GM-CSF IC50 over pSTAT4/IL-12 IC50) [fold]
0.026,> 10000,2098,1.48,2100,911,1.82,–,–,–,–,"COc1cc(Nc2cc(NC(C)=O)ncc2-c2ccc(F)cn2)nc(S(C)(=O)=O)c1 [Example F22, N-(5-fluoro-4′-((4-methoxy-6-(methylsulfonyl)pyridin-2-yl)amino)-[2,3′-bipyridin]-6′-yl)acetamide]",>5494,–
0.027,> 10000,19.3,2.07,19.4,–,1,8.73,7,–,–,"COc1cc(Nc2cc(NC(C)=O)ncc2-c2ccc(C(C)(C)O)cn2)nc(S(C)(=O)=O)c1 [Example H11, N-(5-(2-hydroxypropan-2-yl)-4′-((4-methoxy-6-(methylsulfonyl)pyridin-2-yl)amino)-[2,3′-bipyridin]-6′-yl)acetamide]",>10000,–
0.026,1820,16245,3.01,16200,2820,0.53,–,–,at least 3 fold,–,"COc1cc(Nc2cc(NC(C)=O)ncc2-c2ccc3c(n2)OCC(C)(C)O3)nc(S(C)(=O)=O)c1 [Example Q25, N-(5-(2,2-dimethyl-2,3-dihydro-[1,4]dioxino[2,3-b]pyridin-6-yl)-4-((4-methoxy-6-(methylsulfonyl)pyridin-2-yl)amino)pyridin-2-yl)acetamide]",–,3437
–,–,–,–,–,–,–,–,–,–,2.9,"CN(C(=O)CN1CCN(CCNC(=O)CCOCCOCCOCCOCCOCCOCCNC(=O)CCCC[C@@H]2SC[C@@H]3NC(=O)N[C@@H]32)CC1)c1ccc(N/C(=C2\C(=O)Nc3ccccc32)c2ccccc2)cc1 [Probe 2, N-(2-(4-(2-(methyl(4-((((Z)-2-oxoindolin-3-ylidene)(phenyl)methyl)amino)phenyl)amino)-2-oxoethyl)piperazin-1-yl)ethyl)-1-(5-((3aS,4S,6aR)-2-oxohexahydro-1H-thieno[3,4-d]imidazol-4-yl)pentanamido)-3,6,9,12,15,18-hexaoxahenicosan-21-amide]",–,–
